Measured values taken from ChEMBL document CHEMBL1201862, “PubChem BioAssay data set” (2004).
Activity calls are given as the source filed them.

Columns and labels:
Hexokinase HKDC1 = molecular target: T1, Hexokinase HKDC1 (Homo sapiens, UniProt Q2TB90); assay: HKDC1 hexokinase activators, dose response, biochemical, W721R variant (AID 504730); type: functional
T1 sequence (Q2TB90 whole entry): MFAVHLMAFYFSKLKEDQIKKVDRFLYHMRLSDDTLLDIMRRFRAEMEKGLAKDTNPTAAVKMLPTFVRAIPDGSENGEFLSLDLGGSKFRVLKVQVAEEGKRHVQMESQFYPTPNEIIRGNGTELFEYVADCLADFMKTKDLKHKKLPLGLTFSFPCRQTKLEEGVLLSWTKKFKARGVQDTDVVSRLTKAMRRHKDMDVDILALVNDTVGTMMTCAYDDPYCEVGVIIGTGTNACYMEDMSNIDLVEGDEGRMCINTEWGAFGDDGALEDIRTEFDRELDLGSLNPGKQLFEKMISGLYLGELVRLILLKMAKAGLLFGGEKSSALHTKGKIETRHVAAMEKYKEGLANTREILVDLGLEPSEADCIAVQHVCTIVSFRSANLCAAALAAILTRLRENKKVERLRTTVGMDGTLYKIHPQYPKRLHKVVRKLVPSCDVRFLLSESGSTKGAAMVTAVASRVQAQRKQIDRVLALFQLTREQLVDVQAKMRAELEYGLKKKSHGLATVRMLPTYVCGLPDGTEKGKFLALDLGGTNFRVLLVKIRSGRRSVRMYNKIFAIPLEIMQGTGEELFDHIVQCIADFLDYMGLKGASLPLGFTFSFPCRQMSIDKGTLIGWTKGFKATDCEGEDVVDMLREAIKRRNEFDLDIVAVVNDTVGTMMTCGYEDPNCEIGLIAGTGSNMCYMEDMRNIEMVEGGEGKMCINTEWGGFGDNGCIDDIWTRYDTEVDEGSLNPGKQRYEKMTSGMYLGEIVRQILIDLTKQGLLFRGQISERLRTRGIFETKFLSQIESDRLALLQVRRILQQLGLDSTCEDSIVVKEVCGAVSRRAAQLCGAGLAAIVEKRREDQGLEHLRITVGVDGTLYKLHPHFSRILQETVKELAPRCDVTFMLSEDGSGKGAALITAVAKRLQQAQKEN

Hexokinase-1 = molecular target: T2, Hexokinase-1 (Homo sapiens, UniProt P19367); assay: hexokinase 1 activators, dose response, selectivity assay for HKDC1 activator project, biochemical (AID 504762); type: functional
T2 sequence (P19367 whole entry): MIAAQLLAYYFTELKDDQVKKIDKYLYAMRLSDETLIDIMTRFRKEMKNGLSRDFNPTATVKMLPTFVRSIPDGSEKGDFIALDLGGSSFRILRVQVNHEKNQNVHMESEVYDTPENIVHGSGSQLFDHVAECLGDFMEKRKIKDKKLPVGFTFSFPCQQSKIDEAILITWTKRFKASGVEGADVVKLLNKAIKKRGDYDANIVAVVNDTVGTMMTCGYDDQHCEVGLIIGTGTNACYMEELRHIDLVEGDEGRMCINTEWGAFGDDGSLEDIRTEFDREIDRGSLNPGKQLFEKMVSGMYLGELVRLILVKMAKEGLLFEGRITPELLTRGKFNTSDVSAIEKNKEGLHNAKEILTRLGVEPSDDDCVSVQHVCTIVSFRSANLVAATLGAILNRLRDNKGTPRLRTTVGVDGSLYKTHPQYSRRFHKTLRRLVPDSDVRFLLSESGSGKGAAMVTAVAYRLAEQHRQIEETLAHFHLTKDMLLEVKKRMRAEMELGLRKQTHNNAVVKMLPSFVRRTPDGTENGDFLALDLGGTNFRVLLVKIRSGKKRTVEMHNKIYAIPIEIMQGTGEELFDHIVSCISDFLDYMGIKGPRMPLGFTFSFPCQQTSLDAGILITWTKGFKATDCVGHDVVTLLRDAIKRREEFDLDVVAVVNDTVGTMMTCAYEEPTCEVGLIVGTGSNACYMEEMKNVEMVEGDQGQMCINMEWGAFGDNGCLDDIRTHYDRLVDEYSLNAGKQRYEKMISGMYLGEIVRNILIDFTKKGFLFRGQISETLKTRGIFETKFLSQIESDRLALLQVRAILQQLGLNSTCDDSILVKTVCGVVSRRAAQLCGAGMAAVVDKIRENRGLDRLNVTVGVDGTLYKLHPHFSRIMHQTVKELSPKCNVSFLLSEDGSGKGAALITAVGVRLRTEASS

Prothrombin = Prothrombin (Bos taurus, UniProt P00735); assay: thrombin inhibition, dose response, biochemical, fluorescence polarization, uHTS hits (AID 602369); type: functional
[1] = molecular target: Intestinal-type alkaline phosphatase (Homo sapiens, UniProt P09923); assay: activation of human intestinal alkaline phosphatase – biochemical, dose response (AID 488873); type: functional
[2] = molecular target: T3, Alkaline phosphatase, tissue-nonspecific isozyme (Homo sapiens, UniProt P05186); assay: TNAP enzyme activators, dose response, selectivity assay for mouse IAP activator project, biochemical, TNAP isozyme, mouse IAP uHTS hits (AID 488880); type: functional
T3 sequence (P05186 whole entry): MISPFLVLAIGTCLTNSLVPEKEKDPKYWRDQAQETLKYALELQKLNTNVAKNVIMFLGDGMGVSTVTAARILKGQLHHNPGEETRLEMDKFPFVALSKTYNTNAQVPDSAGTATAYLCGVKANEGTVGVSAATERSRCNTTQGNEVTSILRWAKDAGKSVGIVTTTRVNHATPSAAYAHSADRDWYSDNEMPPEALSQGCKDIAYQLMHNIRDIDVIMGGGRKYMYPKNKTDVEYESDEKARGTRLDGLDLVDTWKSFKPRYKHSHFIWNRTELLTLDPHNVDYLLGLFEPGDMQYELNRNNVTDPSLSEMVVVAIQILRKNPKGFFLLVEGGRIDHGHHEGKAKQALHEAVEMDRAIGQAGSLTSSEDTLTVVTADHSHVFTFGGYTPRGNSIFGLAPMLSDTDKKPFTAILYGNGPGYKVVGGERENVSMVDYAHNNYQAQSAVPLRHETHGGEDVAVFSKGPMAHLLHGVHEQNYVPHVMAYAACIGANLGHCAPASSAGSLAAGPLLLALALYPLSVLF

[3] = molecular target: 26S proteasome non-ATPase regulatory subunit 14 (Homo sapiens, UniProt O00487); assay: inhibition of proteasome subunit RPN11 – biochemical, fluorescence polarization, uHTS hits, confirmation (AID 602368); type: functional
[4] = molecular target: 72 kDa type IV collagenase (Homo sapiens, UniProt P08253); assay: Dose Response validation of uHTS RPN11 inhibitor hits using a MMP-2 Fluorescence assay.; type: functional
[5] = molecular target: Intestinal-type alkaline phosphatase (Mus musculus, UniProt P24822); assay: mouse intestinal alkaline phosphatase activators, dose response, biochemical, luminescence, uHTS hits (AID 488783); type: functional
[6] = molecular target: T4, Corticotropin-releasing factor receptor 2/Corticotropin-releasing factor-binding protein (Homo sapiens, UniProt P24387+Q13324); assay: activators of CRF receptor 2 with binding protein – uHTS hits, confirmation (AID 602473); type: functional; conditions: read-out: EC50_Mean
T4 sequence (Q13324 whole entry): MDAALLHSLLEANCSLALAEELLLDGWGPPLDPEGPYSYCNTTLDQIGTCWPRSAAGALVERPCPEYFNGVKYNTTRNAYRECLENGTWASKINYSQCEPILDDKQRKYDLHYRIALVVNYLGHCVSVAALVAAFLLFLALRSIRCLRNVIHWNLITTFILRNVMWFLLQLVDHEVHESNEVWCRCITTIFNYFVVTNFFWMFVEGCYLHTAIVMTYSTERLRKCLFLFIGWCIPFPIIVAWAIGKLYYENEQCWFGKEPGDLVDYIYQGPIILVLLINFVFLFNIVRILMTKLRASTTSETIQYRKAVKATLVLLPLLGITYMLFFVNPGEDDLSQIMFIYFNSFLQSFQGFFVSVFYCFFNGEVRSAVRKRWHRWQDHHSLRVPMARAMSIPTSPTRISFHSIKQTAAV
T4 sequence (P24387 whole entry): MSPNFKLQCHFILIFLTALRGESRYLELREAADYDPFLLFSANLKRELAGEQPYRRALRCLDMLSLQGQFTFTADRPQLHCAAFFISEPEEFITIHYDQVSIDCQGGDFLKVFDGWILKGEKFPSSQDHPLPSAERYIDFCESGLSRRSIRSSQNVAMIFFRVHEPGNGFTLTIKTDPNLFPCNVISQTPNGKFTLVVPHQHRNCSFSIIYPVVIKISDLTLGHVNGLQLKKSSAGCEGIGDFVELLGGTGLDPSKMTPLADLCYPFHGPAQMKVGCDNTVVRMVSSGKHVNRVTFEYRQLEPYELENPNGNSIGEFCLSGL

[7] = molecular target: T5, Short transient receptor potential channel 4 (Mus musculus, UniProt Q9QUQ5); assay: mouse TRPC4 channel activators, dose response, cell-based, HEK293 TRPC4/mu-opioid, Fluo-4 calcium (AID 434937); type: functional
T5 sequence (Q9QUQ5 whole entry): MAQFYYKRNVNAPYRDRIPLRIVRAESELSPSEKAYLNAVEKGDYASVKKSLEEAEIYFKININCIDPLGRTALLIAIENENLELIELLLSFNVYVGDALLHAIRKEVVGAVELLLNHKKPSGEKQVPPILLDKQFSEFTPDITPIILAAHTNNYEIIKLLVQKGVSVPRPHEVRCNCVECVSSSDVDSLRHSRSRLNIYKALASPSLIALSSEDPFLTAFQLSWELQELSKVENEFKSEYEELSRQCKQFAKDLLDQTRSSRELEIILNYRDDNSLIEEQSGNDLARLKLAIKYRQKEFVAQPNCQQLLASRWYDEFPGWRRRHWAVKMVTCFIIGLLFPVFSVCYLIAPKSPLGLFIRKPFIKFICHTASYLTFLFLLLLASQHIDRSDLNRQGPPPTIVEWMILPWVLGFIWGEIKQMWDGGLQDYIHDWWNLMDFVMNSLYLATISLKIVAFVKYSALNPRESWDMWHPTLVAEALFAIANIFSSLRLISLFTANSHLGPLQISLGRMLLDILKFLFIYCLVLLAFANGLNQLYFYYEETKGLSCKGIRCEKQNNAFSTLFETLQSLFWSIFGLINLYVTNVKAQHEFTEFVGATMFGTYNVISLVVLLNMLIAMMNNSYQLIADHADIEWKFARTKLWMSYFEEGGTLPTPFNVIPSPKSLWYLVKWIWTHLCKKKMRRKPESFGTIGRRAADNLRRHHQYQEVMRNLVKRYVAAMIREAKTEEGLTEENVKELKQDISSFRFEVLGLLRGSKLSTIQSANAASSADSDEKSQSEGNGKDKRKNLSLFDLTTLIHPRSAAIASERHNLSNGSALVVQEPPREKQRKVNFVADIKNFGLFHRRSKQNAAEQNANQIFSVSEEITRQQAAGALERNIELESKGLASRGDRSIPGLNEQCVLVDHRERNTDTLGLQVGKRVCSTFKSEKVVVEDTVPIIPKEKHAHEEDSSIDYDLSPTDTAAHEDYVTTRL

Exodeoxyribonuclease V = Exodeoxyribonuclease V (Escherichia coli (strain K12), UniProt P04993+P07648+P08394); assay: E. coli RecBCD inhibitors, dose response, counter-screen for AddAB inhibitor project, absorbance, V66 E. coli, mutant T4 phage (AID 492957); type: functional, cell-based, Escherichia coli str. K-12 substr. MG1655
[8] = Vero E6 cell cytotoxicity, dose response, cytotoxicity control for non-replicating M. tuberculosis project, secondary assay (AID 492998); type: functional, VeroE6; conditions: Vero C1008
HEK293 = assay: inhibitors of LMP1-driven NF-kB reporter, dose response, cell-based, HEK293, luciferase, cherry-pick (AID 588343); type: functional; conditions: Homo sapiens
[9] = Luminescence-based counterscreen assay for KLF5 inhibitors: dose response cell-based high throughput screening assay to identify cytotoxic compounds using the IEC-6 intestinal epithelial cell line. [Related pubchem assays: 1700 (Primary screen.), 1834 (Confirmation screen.), 1858 (Summary AID.), 1905 (Counterscreen.)]; type: functional
cells [10] = type: functional, cell-based
INS1 = assay: beta cell apoptosis inhibitors, cytokine rescue, dose response, luminescence, retest (AID 449756); type: functional, cell-based; conditions: Rattus norvegicus;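 also: cell death triggered by IL-1 beta plus TNF-alpha plus IFN-gamma mixture; protective hits raise ATP signal compared with cytokine alone wells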
cells [11] = type: functional, cell-based; remark: listed apart in the source
Streptococcus = assay: Group A Streptococcus viability loss, dose response, counter-screen for streptokinase expression inhibitor project, luminescence, BacTiterGlo (AID 1915); type: functional, organism-based;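 also: potency for reduction of bacterial viability or growth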
[12] = cytotoxicity in HEK-293T cells, dose response, cytotoxicity control for TCR NF-kB inhibitor project, luminescence, T-cell screen hits (AID 489026); type: functional, cell-based;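 also: cells exposed to compound about 14 hours before the viability readout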
[13] = Counterscreen for AddAB inhibitors: absorbance-based bacterial cell-based high throughput dose response assay for inhibitors of bacterial viability. [Related pubchem assays (depositor defined):AID435030, AID449728, AID449731, AID488942, AID488955, AID488956]; type: functional
[14] = test system: Streptococcus sp. 'group A'; assay: growth inhibition of control SK(-) GAS strain, dose response, counter-screen for streptokinase expression inhibitor project, luminescence, kanamycin, BacTiterGlo, confirmation (AID 1900); type: functional, organism-based
[15] = HepG2 cell cytotoxicity, dose response, cytotoxicity control for non-replicating M. tuberculosis project (AID 489018); type: functional; conditions: Mycobacterium tuberculosis
[16] = THP-1 cell cytotoxicity, dose response, cytotoxicity control for non-replicating M. tuberculosis project (AID 489025); type: functional

Sequence of 26S proteasome non-ATPase regulatory subunit 14 (O00487 whole entry): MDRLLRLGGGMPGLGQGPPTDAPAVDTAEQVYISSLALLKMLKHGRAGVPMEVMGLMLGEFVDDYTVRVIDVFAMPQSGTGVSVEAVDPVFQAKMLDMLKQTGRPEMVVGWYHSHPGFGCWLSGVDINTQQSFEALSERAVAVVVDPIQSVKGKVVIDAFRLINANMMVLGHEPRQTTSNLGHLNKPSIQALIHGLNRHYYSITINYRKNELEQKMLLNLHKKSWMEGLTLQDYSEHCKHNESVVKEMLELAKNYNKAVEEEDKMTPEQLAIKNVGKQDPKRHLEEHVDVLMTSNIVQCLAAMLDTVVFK
Sequence of Intestinal-type alkaline phosphatase (Mus musculus, UniProt P24822) (P24822 whole entry): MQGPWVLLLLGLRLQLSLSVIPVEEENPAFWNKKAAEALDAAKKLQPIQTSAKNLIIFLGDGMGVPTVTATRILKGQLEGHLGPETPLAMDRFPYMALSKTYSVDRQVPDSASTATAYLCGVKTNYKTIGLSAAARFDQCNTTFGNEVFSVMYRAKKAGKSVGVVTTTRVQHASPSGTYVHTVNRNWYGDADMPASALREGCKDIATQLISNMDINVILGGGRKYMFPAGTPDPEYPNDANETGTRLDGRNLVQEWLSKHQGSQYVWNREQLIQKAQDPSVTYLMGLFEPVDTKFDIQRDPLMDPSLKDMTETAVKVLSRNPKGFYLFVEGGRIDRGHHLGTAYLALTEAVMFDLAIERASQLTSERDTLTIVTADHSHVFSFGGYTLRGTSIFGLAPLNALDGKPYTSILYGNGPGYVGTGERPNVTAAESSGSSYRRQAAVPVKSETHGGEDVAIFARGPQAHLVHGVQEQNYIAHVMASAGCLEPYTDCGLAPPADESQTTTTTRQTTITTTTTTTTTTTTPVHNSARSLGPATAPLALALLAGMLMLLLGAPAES
Sequence of 72 kDa type IV collagenase (P08253 whole entry): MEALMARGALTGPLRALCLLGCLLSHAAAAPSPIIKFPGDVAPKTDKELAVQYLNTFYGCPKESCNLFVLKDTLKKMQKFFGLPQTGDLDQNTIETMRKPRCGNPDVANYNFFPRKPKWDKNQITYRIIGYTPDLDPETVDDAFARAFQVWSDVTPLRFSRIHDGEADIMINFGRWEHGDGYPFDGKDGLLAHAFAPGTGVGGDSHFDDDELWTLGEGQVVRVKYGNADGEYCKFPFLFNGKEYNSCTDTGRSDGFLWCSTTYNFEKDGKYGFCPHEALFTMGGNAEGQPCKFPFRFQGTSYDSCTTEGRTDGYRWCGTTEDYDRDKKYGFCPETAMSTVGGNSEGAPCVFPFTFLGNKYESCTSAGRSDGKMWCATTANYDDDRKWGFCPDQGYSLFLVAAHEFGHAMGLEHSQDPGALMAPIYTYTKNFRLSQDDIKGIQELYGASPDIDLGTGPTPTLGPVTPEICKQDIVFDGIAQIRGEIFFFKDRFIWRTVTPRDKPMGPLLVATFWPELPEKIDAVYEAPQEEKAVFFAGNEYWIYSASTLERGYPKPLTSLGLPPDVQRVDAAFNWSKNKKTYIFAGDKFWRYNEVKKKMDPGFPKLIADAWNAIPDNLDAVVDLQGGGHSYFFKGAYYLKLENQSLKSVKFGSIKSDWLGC
Sequence of Exodeoxyribonuclease V (P04993 whole entry): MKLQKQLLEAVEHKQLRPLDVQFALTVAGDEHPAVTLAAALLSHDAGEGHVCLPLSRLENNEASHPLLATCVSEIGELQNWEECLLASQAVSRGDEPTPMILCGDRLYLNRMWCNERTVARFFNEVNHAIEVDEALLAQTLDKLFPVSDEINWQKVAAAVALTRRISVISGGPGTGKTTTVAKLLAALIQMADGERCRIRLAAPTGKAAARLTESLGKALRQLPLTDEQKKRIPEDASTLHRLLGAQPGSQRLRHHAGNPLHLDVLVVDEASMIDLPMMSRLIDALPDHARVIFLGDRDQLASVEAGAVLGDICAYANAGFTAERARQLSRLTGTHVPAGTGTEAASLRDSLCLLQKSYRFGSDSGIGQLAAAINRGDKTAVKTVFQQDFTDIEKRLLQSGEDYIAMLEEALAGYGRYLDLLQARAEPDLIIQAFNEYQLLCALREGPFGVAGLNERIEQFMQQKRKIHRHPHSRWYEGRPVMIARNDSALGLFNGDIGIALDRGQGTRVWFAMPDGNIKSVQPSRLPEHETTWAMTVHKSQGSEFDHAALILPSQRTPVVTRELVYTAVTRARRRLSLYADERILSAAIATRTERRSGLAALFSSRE
Sequence of Exodeoxyribonuclease V (P07648 whole entry): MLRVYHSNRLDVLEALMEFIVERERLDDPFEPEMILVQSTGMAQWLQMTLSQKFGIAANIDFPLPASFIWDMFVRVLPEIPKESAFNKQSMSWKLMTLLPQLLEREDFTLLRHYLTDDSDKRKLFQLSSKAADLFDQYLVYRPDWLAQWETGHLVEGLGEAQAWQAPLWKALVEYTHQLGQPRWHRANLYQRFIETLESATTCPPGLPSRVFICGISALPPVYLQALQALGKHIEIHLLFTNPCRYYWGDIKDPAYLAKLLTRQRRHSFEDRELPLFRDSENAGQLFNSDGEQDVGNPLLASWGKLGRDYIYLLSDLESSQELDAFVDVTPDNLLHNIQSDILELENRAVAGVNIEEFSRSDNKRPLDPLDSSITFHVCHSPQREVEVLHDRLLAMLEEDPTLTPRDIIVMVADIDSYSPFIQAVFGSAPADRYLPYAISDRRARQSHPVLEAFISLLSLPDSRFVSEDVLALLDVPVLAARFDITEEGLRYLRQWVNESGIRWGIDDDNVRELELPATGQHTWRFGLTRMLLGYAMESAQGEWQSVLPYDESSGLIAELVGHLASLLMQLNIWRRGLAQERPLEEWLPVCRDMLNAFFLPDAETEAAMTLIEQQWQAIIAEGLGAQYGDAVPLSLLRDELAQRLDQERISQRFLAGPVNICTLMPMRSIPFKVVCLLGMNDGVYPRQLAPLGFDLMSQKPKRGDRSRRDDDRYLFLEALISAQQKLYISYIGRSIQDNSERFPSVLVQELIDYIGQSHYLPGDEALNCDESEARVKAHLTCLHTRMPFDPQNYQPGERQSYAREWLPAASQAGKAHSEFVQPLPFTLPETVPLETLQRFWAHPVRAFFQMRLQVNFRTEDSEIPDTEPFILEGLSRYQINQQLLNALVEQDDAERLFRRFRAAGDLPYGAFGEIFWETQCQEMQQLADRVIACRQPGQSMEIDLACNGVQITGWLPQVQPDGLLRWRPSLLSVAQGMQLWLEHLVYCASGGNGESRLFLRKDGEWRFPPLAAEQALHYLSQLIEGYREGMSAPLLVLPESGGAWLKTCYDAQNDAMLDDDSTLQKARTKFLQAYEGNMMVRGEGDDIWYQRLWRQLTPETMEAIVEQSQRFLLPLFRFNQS
Sequence of Exodeoxyribonuclease V (P08394 whole entry): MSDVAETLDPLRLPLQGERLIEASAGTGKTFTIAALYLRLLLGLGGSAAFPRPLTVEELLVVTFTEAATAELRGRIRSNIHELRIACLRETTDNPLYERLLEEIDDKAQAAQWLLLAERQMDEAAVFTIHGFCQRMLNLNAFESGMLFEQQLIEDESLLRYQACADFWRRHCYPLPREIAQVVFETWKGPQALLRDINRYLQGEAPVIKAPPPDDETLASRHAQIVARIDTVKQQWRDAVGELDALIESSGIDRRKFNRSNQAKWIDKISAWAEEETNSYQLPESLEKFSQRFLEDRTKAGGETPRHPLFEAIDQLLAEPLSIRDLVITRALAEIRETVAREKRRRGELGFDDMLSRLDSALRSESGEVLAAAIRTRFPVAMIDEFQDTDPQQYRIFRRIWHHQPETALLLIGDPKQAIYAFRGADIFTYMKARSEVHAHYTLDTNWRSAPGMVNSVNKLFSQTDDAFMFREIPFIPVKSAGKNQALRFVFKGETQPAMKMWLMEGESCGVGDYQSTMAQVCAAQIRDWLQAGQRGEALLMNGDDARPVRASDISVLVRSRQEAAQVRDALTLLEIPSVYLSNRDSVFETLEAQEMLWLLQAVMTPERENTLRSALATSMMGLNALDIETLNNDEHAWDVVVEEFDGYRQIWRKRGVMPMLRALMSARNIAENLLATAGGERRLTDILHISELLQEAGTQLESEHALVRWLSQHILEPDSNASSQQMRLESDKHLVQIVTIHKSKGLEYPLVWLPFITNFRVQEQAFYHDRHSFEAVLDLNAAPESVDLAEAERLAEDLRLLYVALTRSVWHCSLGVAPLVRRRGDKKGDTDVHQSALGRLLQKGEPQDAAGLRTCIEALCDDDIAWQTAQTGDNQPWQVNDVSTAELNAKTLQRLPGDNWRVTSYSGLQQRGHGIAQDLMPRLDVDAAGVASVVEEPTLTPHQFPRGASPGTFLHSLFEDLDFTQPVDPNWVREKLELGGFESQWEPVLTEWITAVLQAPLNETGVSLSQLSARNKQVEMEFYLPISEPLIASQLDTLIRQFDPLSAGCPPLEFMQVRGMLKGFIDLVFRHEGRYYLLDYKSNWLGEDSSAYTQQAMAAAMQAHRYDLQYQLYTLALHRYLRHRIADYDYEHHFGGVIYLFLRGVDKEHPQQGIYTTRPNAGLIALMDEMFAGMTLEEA
Sequence of Intestinal-type alkaline phosphatase (Homo sapiens, UniProt P09923) (P09923 whole entry): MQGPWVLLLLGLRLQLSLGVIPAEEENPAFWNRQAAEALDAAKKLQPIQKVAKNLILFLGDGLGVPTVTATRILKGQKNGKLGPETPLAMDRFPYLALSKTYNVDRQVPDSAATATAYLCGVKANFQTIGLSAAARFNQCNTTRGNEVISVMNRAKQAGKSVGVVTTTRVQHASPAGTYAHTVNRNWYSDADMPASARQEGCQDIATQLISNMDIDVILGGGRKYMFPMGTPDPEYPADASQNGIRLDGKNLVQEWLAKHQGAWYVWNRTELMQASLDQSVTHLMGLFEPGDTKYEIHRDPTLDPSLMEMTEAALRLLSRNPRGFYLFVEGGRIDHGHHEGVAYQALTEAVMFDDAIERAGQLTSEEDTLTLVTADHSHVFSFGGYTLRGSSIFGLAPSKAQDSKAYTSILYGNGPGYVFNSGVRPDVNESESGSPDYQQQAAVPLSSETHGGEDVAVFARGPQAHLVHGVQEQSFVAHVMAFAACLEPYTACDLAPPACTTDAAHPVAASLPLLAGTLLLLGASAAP

COC(=O)Cn1c2ccc(F)cc2c2nc(C)sc21
active: EC50 (Hexokinase HKDC1) 8.74 µM | EC50 (Hexokinase-1) 8.1 µM

CN(CCO)c1ccc(C=NNc2ccc([N+](=O)[O-])cc2S(=O)(=O)Nc2ccccc2C(=O)O)cc1
inactive: IC50 [4] > 100 µM
active: IC50 (Prothrombin) 36.4 µM | EC50 [1] 26.6 µM | EC50 [2] 19.7 µM | IC50 [3] 37 µM | EC50 [5] 17.5 µM

CCC1(c2ccc(F)cc2)NC(=O)N(CC(=O)c2cc(C)n(C3CC3)c2C)C1=O (stereo not drawn)
active: EC50 [6] 4.88 µM | EC50 [7] 5.96 µM

O=C(N/N=C/c1c(O)ccc2ccccc12)c1ccc(Br)o1
inactive: IC50 (Exodeoxyribonuclease V) > 119 µM | IC50 [12] > 80 µM | IC50 [13] > 119 µM
> 350 µM (not active): EC50 (cells [11])
active: CC50 [8] 2.71 µM | AC50 (HEK293) 6.22 µM | IC50 [9] 9.35 µM | EC50 (cells [10]) 37.3 µM | AC50 (INS1) 0.779 µM | EC50 (Streptococcus) 2.83 µM | EC50 [14] 0.982 µM | CC50 [15] 5.73 µM | CC50 [16] 0.493 µM
